Data published in article PMC7561186, “Rational design of balanced dual-targeting antibiotics with limited resistance” (PLoS Biology, 2020).
In brackets after ≈: the same amount, converted by molar mass. Where two headings read alike, the source gives them in different places.

Test system: S. aureus clinical isolates
Assay: microbe, parasite or virus in culture
Assay type: cell-based
Conditions: Staphylococcus aureus, read-out: MIC

## C[C@H]1COc2c(N3CCN(C)CC3)c(F)cc3c(=O)c(C(=O)O)cn1c23 [Levofloxacin]
ATCC 29213 / MSSA, S. aureus ATCC 29213, MSSA / VSSA, test date 2018-10-25 (three repeat lines)
  MIC: 0.25 µg/mL (≈ 0.692 µM)
ATCC 29213 / MSSA, S. aureus ATCC 29213, MSSA / VSSA, test date 2018-11-07
  MIC: 0.25 µg/mL (≈ 0.692 µM)
MRSA / NRS 3 / VISA, S. aureus IHMA 1308243, NRS3, MRSA / VISA
  MIC: 32 µg/mL (≈ 88.6 µM)
MRSA / NRS 4 / VISA, S. aureus IHMA 649380, NRS4, MRSA / VISA
  MIC: 16 µg/mL (≈ 44.3 µM)
MRSA / NRS 18 / VISA, S. aureus IHMA 649386, NRS18, MRSA / VISA
  MIC: 16 µg/mL (≈ 44.3 µM)
MRSA / NRS 19 / VISA, S. aureus IHMA 649387, NRS19, MRSA / VISA
  MIC: 32 µg/mL (≈ 88.6 µM)
MRSA / NRS 21 / VISA, S. aureus IHMA 649388, NRS21, MRSA / VISA
  MIC: 8 µg/mL (≈ 22.1 µM)
MRSA / NRS 22 / USA600 / VISA, S. aureus IHMA 649389, NRS22, MRSA / VISA, USA600
  MIC: 16 µg/mL (≈ 44.3 µM)
MRSA / NRS 23 / VISA, S. aureus IHMA 649390, NRS23, MRSA / VISA
  MIC: 16 µg/mL (≈ 44.3 µM)
MRSA / NRS 24 / VISA, S. aureus IHMA 649391, NRS24, MRSA / VISA
  MIC: 64 µg/mL (≈ 177 µM)
MRSA / NRS 26, S. aureus IHMA 649392, NRS26, MRSA / VSSA
  MIC: 8 µg/mL (≈ 22.1 µM)
MRSA / NRS 27 / VISA, S. aureus IHMA 1308248, NRS27, MRSA / VISA
  MIC: 32 µg/mL (≈ 88.6 µM)
MRSA / NRS 29 / VISA, S. aureus IHMA 1308250, NRS29, MRSA / VISA
  MIC: 16 µg/mL (≈ 44.3 µM)
MRSA / NRS 37 / VISA, S. aureus IHMA 1308251, NRS37, MRSA / VISA
  MIC: 32 µg/mL (≈ 88.6 µM)
MRSA / NRS 54, S. aureus IHMA 1308253, NRS54, MRSA / VSSA* (*Expected VAN intermediate, confirmed VAN susceptible twice), test date 2018-11-07
  MIC: 8 µg/mL (≈ 22.1 µM)
MRSA / NRS 56 / VISA, S. aureus IHMA 1308254, NRS56, MRSA / VISA
  MIC: 8 µg/mL (≈ 22.1 µM)
MRSA / USA100 / VRSA, S. aureus IHMA 672230, VRS1, MRSA / VRSA, USA100
  MIC: 32 µg/mL (≈ 88.6 µM)
MRSA / USA100 / VRSA, S. aureus IHMA 672231, VRS2, MRSA / VRSA, USA100
  MIC: 32 µg/mL (≈ 88.6 µM)
MRSA / USA100 / VRSA, S. aureus IHMA 672234, VRS4, MRSA / VRSA, USA100
  MIC: > 64 µg/mL
MRSA / USA100 / VRSA, S. aureus IHMA 672235, VRS5, MRSA / VRSA, USA100
  MIC: 64 µg/mL (≈ 177 µM)
MRSA / USA100 / VRSA, S. aureus IHMA 672237, VRS7, MRSA / VRSA, USA100
  MIC: 64 µg/mL (≈ 177 µM)
MRSA / USA100 / VRSA, S. aureus IHMA 672238, VRS8, MRSA / VRSA, USA100
  MIC: 16 µg/mL (≈ 44.3 µM)
MRSA / USA100 / VRSA, S. aureus IHMA 672239, VRS9, MRSA / VRSA, USA100
  MIC: 64 µg/mL (≈ 177 µM)
MRSA / USA100 / VRSA, S. aureus IHMA 1308256, VRS10, MRSA / VRSA, USA100
  MIC: > 64 µg/mL
MRSA / USA100 / VRSA, S. aureus IHMA 1308258, VRS11b, MRSA / VRSA, USA100
  MIC: > 64 µg/mL
MRSA / USA800 / VRSA, S. aureus IHMA 672233, VRS3b, MRSA / VRSA, USA800
  MIC: 16 µg/mL (≈ 44.3 µM)
MRSA, S. aureus IHMA 1569509, MRSA / VSSA
  MIC: 4 µg/mL (≈ 11.1 µM)
MRSA, S. aureus IHMA 1575268, MRSA / VSSA
  MIC: 32 µg/mL (≈ 88.6 µM)
MRSA, S. aureus IHMA 1575629, MRSA / VSSA
  MIC: 8 µg/mL (≈ 22.1 µM)
MRSA, S. aureus IHMA 1577820, MRSA / VSSA
  MIC: > 64 µg/mL
MRSA, S. aureus IHMA 1580300, MRSA / VSSA
  MIC: 16 µg/mL (≈ 44.3 µM)
MRSA, S. aureus IHMA 1580940, MRSA / VSSA
  MIC: 0.5 µg/mL (≈ 1.38 µM)
MRSA, S. aureus IHMA 1582100, MRSA / VSSA
  MIC: 32 µg/mL (≈ 88.6 µM)
MRSA, S. aureus IHMA 1583795, MRSA / VSSA
  MIC: 32 µg/mL (≈ 88.6 µM)
MRSA, S. aureus IHMA 1584223, MRSA / VSSA
  MIC: 8 µg/mL (≈ 22.1 µM)
MRSA, S. aureus IHMA 1585316, MRSA / VSSA
  MIC: 32 µg/mL (≈ 88.6 µM)
MRSA, S. aureus IHMA 1586780, MRSA / VSSA
  MIC: 16 µg/mL (≈ 44.3 µM)
MRSA, S. aureus IHMA 1587322, MRSA / VSSA
  MIC: 0.25 µg/mL (≈ 0.692 µM)
MRSA, S. aureus IHMA 1588127, MRSA / VSSA
  MIC: 16 µg/mL (≈ 44.3 µM)
MRSA, S. aureus IHMA 1591462, MRSA / VSSA
  MIC: 32 µg/mL (≈ 88.6 µM)
MRSA, S. aureus IHMA 1592755, MRSA / VSSA
  MIC: 16 µg/mL (≈ 44.3 µM)
MRSA, S. aureus IHMA 1592776, MRSA / VSSA
  MIC: 0.25 µg/mL (≈ 0.692 µM)
MRSA, S. aureus IHMA 1597106, MRSA / VSSA
  MIC: 16 µg/mL (≈ 44.3 µM)
MRSA, S. aureus IHMA 1602095, MRSA / VSSA
  MIC: 0.25 µg/mL (≈ 0.692 µM)
MRSA, S. aureus IHMA 1611170, MRSA / VSSA
  MIC: 0.25 µg/mL (≈ 0.692 µM)
MRSA, S. aureus IHMA 1611612, MRSA / VSSA
  MIC: 32 µg/mL (≈ 88.6 µM)
MRSA, S. aureus IHMA 1612228, MRSA / VSSA
  MIC: 8 µg/mL (≈ 22.1 µM)
MRSA, S. aureus IHMA 1620441, MRSA / VSSA
  MIC: 32 µg/mL (≈ 88.6 µM)
